According to EP0408973B1, “Antiherpes pentapeptides” (BIO-MEGA/BOEHRINGER INGELHEIM RESEARCH INC., priority 1989, dated 1991):
Starred links: 1 amine or outer side, 2 acyl side, 3 side chain; linkers in the order of their positions; H or OH if unused. Non-standard residues stand in square brackets, D forms with d. Residues, ends and D or L forms follow the SMILES beside them. *: point of attachment. Ala(1H-tetrazol-5-yl) = N[C@@H](Cc1nnn[nH]1)C(=O)O; X1 = CC(C)[C@@H](C(=O)[*:2])N(CCc1ccccc1)[*:1]; Benzoyl(2-Ph) = O=C(c1ccccc1-c1ccccc1)*; Desaminotyrosyl = O=C(CCc1ccc(O)cc1)*; Butanoyl(4-Ph) = O=C(CCCc1ccccc1)*; Hydrocinnamoyl = O=C(CCc1ccccc1)*; Pentanoyl(4-Me) = CC(C)CCC(=O)*; X3 = CC(C)C[C@H](N*)c1nnn[nH]1; X2 = O=C(c1ccccc1Cc1ccccc1)*; NMeV = CN[C@H](C(=O)O)C(C)C

molecular target: HSV-1 ribonucleotide reductase (Human herpesvirus 1, UniProt P08543); assay: biochemical
From the text: Inhibition of Herpes Simplex Virus (HSV, type 1) Ribonucleotide Reductase
• a) Preparation of Enzyme HSV-1 ribonucleotide reductase (partially purified) was obtained from quiescent BHK-21/C13 cells infected with strain F HSV-1 virus at 10 plaque forming units/cell as described by E.A. Cohen et al., J. Gen. […] The number of units of the enzyme preparation used in each assay was constant, based on the specific activity of the enzyme preparation.

Sequence of HSV-1 ribonucleotide reductase (P08543 whole entry): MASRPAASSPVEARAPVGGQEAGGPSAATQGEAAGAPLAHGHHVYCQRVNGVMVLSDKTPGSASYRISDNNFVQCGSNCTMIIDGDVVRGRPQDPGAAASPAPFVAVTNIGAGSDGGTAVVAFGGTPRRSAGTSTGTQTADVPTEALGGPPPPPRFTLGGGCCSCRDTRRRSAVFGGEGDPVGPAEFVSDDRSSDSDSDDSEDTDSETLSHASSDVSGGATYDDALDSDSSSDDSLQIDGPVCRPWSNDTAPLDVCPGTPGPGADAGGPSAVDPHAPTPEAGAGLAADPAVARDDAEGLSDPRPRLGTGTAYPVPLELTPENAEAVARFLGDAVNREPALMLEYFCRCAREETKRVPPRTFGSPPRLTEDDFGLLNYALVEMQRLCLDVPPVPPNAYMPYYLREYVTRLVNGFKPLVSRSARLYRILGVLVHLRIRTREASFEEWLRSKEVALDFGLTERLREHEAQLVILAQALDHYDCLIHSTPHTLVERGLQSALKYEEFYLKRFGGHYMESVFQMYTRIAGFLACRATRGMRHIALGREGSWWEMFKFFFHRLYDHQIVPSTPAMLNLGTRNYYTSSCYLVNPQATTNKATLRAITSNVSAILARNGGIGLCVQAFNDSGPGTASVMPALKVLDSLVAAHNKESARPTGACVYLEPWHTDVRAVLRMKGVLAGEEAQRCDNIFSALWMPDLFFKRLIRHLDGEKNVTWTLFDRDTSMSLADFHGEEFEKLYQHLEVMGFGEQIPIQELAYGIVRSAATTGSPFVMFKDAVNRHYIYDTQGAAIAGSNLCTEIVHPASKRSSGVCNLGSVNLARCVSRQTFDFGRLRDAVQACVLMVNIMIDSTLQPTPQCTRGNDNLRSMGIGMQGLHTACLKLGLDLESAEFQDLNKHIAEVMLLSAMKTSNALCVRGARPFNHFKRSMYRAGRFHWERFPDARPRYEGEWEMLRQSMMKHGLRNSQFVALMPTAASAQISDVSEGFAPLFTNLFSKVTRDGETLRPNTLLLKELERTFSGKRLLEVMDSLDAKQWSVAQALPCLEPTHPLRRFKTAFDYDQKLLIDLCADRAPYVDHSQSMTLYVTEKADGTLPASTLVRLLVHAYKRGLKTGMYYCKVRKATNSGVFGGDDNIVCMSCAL

SMILES	IC50 [µM]
CC[C@H](C)[C@H](NC(=O)[C@H](C(C)C)N(C)C(=O)c1ccccc1Cc1ccccc1)C(=O)N[C@@H](CC(N)=O)C(=O)N[C@@H](CC(=O)O)C(=O)N[C@@H](CC(C)C)C(=O)O (X2-[NMeV]INDL-OH)	5.5
CC[C@H](C)[C@H](NC(=O)[C@H](C(C)C)N(C)C(=O)c1ccccc1-c1ccccc1)C(=O)N[C@@H](CC(N)=O)C(=O)N[C@@H](CC(=O)O)C(=O)N[C@@H](CC(C)C)C(=O)O ({Benzoyl(2-Ph)}-[NMeV]INDL-OH)	2.5
CC[C@H](C)[C@H](NC(=O)[C@H](C(C)C)N(C)C(=O)CCC(C)C)C(=O)N[C@@H](CC(N)=O)C(=O)N[C@@H](CC(=O)O)C(=O)N[C@@H](CC(C)C)C(=O)O [(CH3)2CHCH2CH2CO / CH3 / CONH2 / COOH] ({Pentanoyl(4-Me)}-[NMeV]INDL-OH)	7.6
CC[C@H](C)[C@H](NC(=O)[C@H](C(C)C)N(CCc1ccccc1)C(C)=O)C(=O)N[C@@H](CC(N)=O)C(=O)N[C@@H](CC(=O)O)C(=O)N[C@@H](CC(C)C)C(=O)O [CH3CO / PhCH2CH2 / CONH2 / COOH] (Ac-[X1]INDL-OH)	17
CC[C@H](C)[C@H](NC(=O)[C@H](C(C)C)N(C)C(=O)CCc1ccc(O)cc1)C(=O)N[C@@H](CC(N)=O)C(=O)N[C@@H](CC(=O)O)C(=O)N[C@@H](CC(C)C)C(=O)O [DAT / CH3 / CONH2 / COOH, DAT-N-Me-Val-Ile-Asn-Asp-Leu-OH] (Desaminotyrosyl-[NMeV]INDL-OH)	6
CC[C@H](C)[C@H](NC(=O)[C@H](C(C)C)N(C)C(=O)CCCc1ccccc1)C(=O)N[C@@H](CC(N)=O)C(=O)N[C@@H](CC(=O)O)C(=O)N[C@@H](CC(C)C)C(=O)O [PhCH2CH2CH2CO / CH3 / CONH2 / COOH] ({Butanoyl(4-Ph)}-[NMeV]INDL-OH)	6.2
CC[C@H](C)[C@H](NC(=O)[C@H](C(C)C)N(C)C(=O)CCc1ccccc1)C(=O)N[C@@H](Cc1nnn[nH]1)C(=O)N[C@@H](CC(=O)O)C(=O)N[C@@H](CC(C)C)C(=O)O [PhCH2CH2CO / CH3 / 5-1H-t / COOH, PhCH2CH2CO-N-Me-Val-Ile-NHCH[CH2-5-1H-tetrazole]CO-Asp-Leu-OH] (Hydrocinnamoyl-[NMeV]I[Ala(1H-tetrazol-5-yl)]DL-OH)	2
CC[C@H](C)[C@H](NC(=O)[C@H](C(C)C)N(C)C(=O)CCc1ccccc1)C(=O)N[C@@H](CC(N)=O)C(=O)N[C@@H](CC(=O)O)C(=O)N[C@@H](CC(C)C)c1nnn[nH]1 [PhCH2CH2CO / CH3 / CONH2 / 5-1H-t, PhCH,CH,CO-N-Me-Val-Ile-Asn-Asp-NHCH[CH2-CH(CH3)2]-5-1H-tetrazole] (Hydrocinnamoyl-[NMeV]IND-X3)	3.8
